Values belong to the compound of their own block, whether it stands above or below them.
Experiments:
Assay type in all cases: in vivo
Prodenia litura = Prodenia litura feeding test on dipped maize pieces; conditions: after 24 h
Protocol: Prodenia litura, ägypt. Baumwollwurm
Die Versuche wurden in 250 ml Plastikbechern durchgeführt. Dabei setzte man 2 Raupen in die Gefäße und bot Stücke von Maispflanzen, die man für 5 Sekunden in die wäßrige Wirkstoffaufbereitung getaucht hatte, als Futter an. Wirkstoffgehalt in ppm. Nach 24 Stunden beurteilte man die Mortalitätsrate in %.

Musca domestica = Musca domestica continuous contact test in glass dish; conditions: after 4 h
Protocol: Musca domestica (Stubenfliegen)
Versuchsart: Dauerkontakt
Beide Teile einer Glasschale von 10 cm Durchmesser wurden mit insgesamt 1 ml der acetonischen Lösung der Wirkstoffe benetzt. Wirkstoffgehalt der Lösung in ppm. Nach Verdunsten des Lösungsmittels brachte man je 10 Fliegen in die Schalen, schloß sie und zählte nach 4 Stunden die Tiere, die sich in Rückenlage befanden und bestimmte die Mortalitätsrate in %.

Ornithodorus moubata = Ornithodorus moubata (tick) contact test by dipping; conditions: after 48 h, ca. 25°C
From the text: Ornithodorus moubata (Zecke)
(§1) Versuchsart: Kontaktwirkung
Verwendet wurden junge Zecken, die eine Blutmahlzeit hinter sich hatten (Durchmesser 1,5 bis 2 mm). Diese Tiere nahm man mit Hilfe eines Saugrohres einzeln auf, wobei eine starke Lichtquelle die aktiven Tiere aus den Häutungsresten trieb. Je 5 Zecken wurden in einem Papierbeutel für 5 Sekunden in die wäßrige Wirkstoffaufbereitung getaucht (Wirkstoffgehalt in ppm). Die Beutel hing man danach frei auf und ermittelte nach 48 Stunden die Wirkung. Dabei wurden die Beutel an eine starke Lichtquele (60 W-Birne) gehalten; die lebenden Tiere versuchten auszuweichen und waren leicht zu erkennen. Die Versuchstemperatur betrug ca. 25°C. Man bestimmte die Mortalität in %.

Plutella maculipennis = Plutella maculipennis contact test on dipped cabbage leaves; conditions: after 48 h, 4th instar larvae
Protocol: Plutella maculipennis (Kohlschabe)
as §1
Junge Kohlblätter wurden 3 sec. in die wäßrige Aufbereitung der Prüfsubstanz getaucht (Wirkstoffgehalt in ppm) und auf einen mit 0,5 ml Wasser angefeuchteten Rundfilter (Φ 9 cm) in eine Glasschale gelegt (Φ 10 cm). Darauf wurde das Blatt mit 10 Raupen im 4. Larvenstadium besetzt und die Glasschale geschlossen. Nach 48 Stunden beurteilte man die Mortalität in %.

Tetranychus telarius = Tetranychus telarius contact test, spray test on bush beans; conditions: 120 h, after 5 days
Protocol: Tetranychus telarius, Rote Spinne, Kontaktwirkung, Spritzversuch
Buschbohnen in Töpfen, die das zweite Blattpaar zeigen, werden mit der wäßrigen Wirkstoffaufbereitung tropfnaß gespritzt. Die Pflanzen werden von allen Seiten mit insgesamt 50 ml Spritzbrühe besprüht. Die Pflanzen weisen einen starken Milbenbefall und reichliche Eiablage auf.
Die Wirkung wird nach 5 Tagen mittels Binokular ermittelt. Dabei wird darauf geachtet, ob alle Entwicklungsstadien der Tiere gleichmäßig erfaßt sind. Die Pflanzen stehen während der 5 Tage unter normalen Gewächshausbedingungen.

Pyrenophora teres = assay: Efficacy against Pyrenophora teres on barley seedlings, protective spray; conditions: 0,0125 gew.%ige Spritzbrühe; barley "Igri"; inoculated 24 h after spraying
Protocol: Wirksamkeit gegen Pyrenophora teres
Gerstenkeimlinge der Sorte "Igri" wurden im Zweiblattstadium mit wäßrigen Suspensionen, die 80 % Wirkstoff und 20 % Emulgator in der Trockensubstanz enthielten, tropfnaß gespritzt. Nach 24 Stunden wurden die Pflanzen mit einer Sporensuspension des Pilzes Pyrenophora teres inokuliert und für 48 Stunden in eine Klimakammer mit hoher Luftfeuchtigkeit bei 18°C gestellt. Anschließend wurden die Pflanzen im Gewächshaus bei 20 bis 22°C und 70 % relativer Luftfeuchtigkeit für weitere 5 Tage kultiviert. Dann wurde das Ausmaß des Befalls ermittelt.

Plasmopara viticola = assay: Efficacy against Plasmopara viticola on potted vine leaves, protective spray; conditions: 0,0125 gew.%ige Spritzbrühe; vines "Müller Thurgau"; infected 8 days after spraying
From the text: Wirksamkeit gegen Plasmopara viticola
Blätter von Topfreben der Sorte "Müller Thurgau" wurden mit wäßriger Spritzbrühe, die 80 % Wirkstoff und 20 % Emulgiermittel in der Trockensubstanz enthielt, besprüht. Um die Wirkungsdauer der Wirkstoffe beurteilen zu können, wurden die Pflanzen nach dem Antrocknen des Spritzbelages 8 Tage im Gewächshaus aufgestellt. Erst dann wurden die Blätter mit einer Zoosporenaufschwemmung von Plasmopara viticola (Rebenperonospora) infiziert. Danach wurden die Reben zunächst für 48 Stunden in einer wasserdampfgesättigten Kammer bei 24°C und anschließend für 5 Tage in einem Gewächshaus mit Temperaturen zwischen 20 und 30°C aufgestellt. Nach dieser Zeit wurden die Pflanzen zur Beschleunigung des Sporangienträgerausbruches abermals für 16 Stunden in der feuchten Kammer aufgestellt. Dann erfolgte die Beurteilung des Ausmaßes des Pilzausbruches auf den Blattunterseiten.

Septoria nodorum = assay: Efficacy against Septoria nodorum on wheat plants, protective spray; conditions: 0,05 gew.%ige Spritzbrühe; wheat "Frühgold"; inoculated 20 h after spraying, assessed after one week
Protocol: Wirksamkeit gegen Septoria nodorum
Weizenpflanzen der Sorte "Frühgold" wurden im Ein-Blatt-Stadium mit wäßriger Wirkstoffaufbereitung, die 80 % Wirkstoff und 20 % Emulgiermittel in der Trockensubstanz enthielt, bis zur Tropfnässe besprüht. 20 Stunden nach dem Antrocknen des Spritzbelages wurden die Pflanzen mit einer wäßrigen Sporensuspension von Septoria nodorum bis zur Tröpfchenbildung inokuliert und für eine Woche in eine Klimakammer bei Temperaturen zwischen 17 und 19°C und einer relativen Luftfeuchtigkeit von ungefähr 90 bis 95 % gestellt. Dann wurde das Ausmaß der Symptomentwicklung ermittelt.

% Mort. (Ornithodorus moubata; 1000 ppm): 0%
Structure (SMILES): COC=C(C(=O)OC)c1ccccc1C=Cc1ccc(Cl)cc1 [A, 2-(β-Methoxy-α-methoxycarbonylvinyl)-4'-chlor-stilben]
mortality at 1000 ppm (Prodenia litura): 0% | mortality at 2 ppm (Musca domestica): 0% | mortality at 1000 ppm (Plutella maculipennis): 0%

% Mort. (Ornithodorus moubata; 1000 ppm): 0%
Structure (SMILES): COC=C(C(=O)OC)c1ccccc1Oc1nc2ccccc2o1 [B, α-[2-(Benzoxazol-2'-yl-oxy)-phenyl]-β-methoxy-acrylsäuremethylester]
mortality at 1000 ppm (Prodenia litura): 80% | mortality at 1000 ppm (Tetranychus telarius; 1000 ppm): 0% | mortality at 4 ppm (Musca domestica; 4 ppm): 80% | mortality at 200 ppm (Plutella maculipennis; 200 ppm): 0% | mortality at 1000 ppm (Plutella maculipennis): 80%

Structure (SMILES): COC=C(C(=O)OC)c1ccccc1Oc1cncc(Cl)n1 [C, α-2-(6-Chlorpyrazin-2-oxy)-phenyl-β-methoxy-acrylsäuremethylester, reference compound]
fungizide Wirkung (Pyrenophora teres): 55% | fungizide Wirkung (Plasmopara viticola): 60%

% Mort. (Ornithodorus moubata; 400 ppm): 80%
Structure (SMILES): CO/C=C(/C(=O)OC)c1ccccc1/C=C/c1ccn(-c2ccc(Cl)cc2)c1 [Verbindung Nr. 4, Alpha-2-[2'-(N-para-Chlorphenyl-pyrrol-3''-yl)-ethen-1'-yl]-phenyl-β-methoxy-acrylsäuremethylester]
mortality at 40 ppm (Prodenia litura; 40 ppm): 100% | mortality at 2 ppm (Musca domestica): 100% | fungizide Wirkung (Septoria nodorum): 95% | mortality at 100 ppm (Plutella maculipennis; 100 ppm): 100%

Structure (SMILES): COC=C(C(=O)OC)c1ccccc1C=Cc1cc(C2CC2)no1 [Verbindung Nr. 42, Alpha-2-[2′-(3˝-Cyclopropyl-isoxazol-5˝-yl)-ethen-1′-yl]-phenyl-β-methoxy-acrylsäuremethylester]
fungizide Wirkung (Plasmopara viticola): 95%

Structure (SMILES): CO/C=C(/C(=O)OC)c1ccccc1/C=C/c1cnn(-c2ccc(C)cc2)c1 [compound 30]
fungizide Wirkung (Pyrenophora teres): 95% | fungizide Wirkung (Plasmopara viticola): 95% | fungizide Wirkung (Septoria nodorum): 95%

Structure (SMILES): CO/C=C(/C(=O)OC)c1ccccc1/C=C/c1cnn(-c2ccc(Cl)cc2)c1 [compound 31]
fungizide Wirkung (Pyrenophora teres): 95% | fungizide Wirkung (Plasmopara viticola): 95% | fungizide Wirkung (Septoria nodorum): 95%

% Mort. (Ornithodorus moubata; 1000 ppm): 80%
Structure (SMILES): CO/C=C(/C(=O)OC)c1ccccc1/C=C/c1cc(C(C)C)no1 [compound 41]
mortality at 100 ppm (Tetranychus telarius): 100% | fungizide Wirkung (Septoria nodorum): 95%

% Mort. (Ornithodorus moubata; 1000 ppm): 60%
Structure (SMILES): CO/C=C(/C(=O)OC)c1ccccc1/C=C/c1cc(-c2ccc(C)cc2)no1 [compound 45]
fungizide Wirkung (Pyrenophora teres): 95% | fungizide Wirkung (Plasmopara viticola): 95% | mortality at 40 ppm (Tetranychus telarius; 40 ppm): 80%

Structure (SMILES): CO/C=C(/C(=O)OC)c1ccccc1/C=C/c1cc(-c2ccc(C#N)cc2)no1 [compound 46]
fungizide Wirkung (Pyrenophora teres): 95% | fungizide Wirkung (Plasmopara viticola): 95% | mortality at 400 ppm (Tetranychus telarius; 400 ppm): 100%

Structure (SMILES): CO/C=C(/C(=O)OC)c1ccccc1/C=C/c1nnc(C(C)C)o1 [compound 69]
fungizide Wirkung (Pyrenophora teres): 95% | fungizide Wirkung (Septoria nodorum): 95%

Structure (SMILES): CO/C=C(/C(=O)OC)c1ccccc1/C=C/c1nc(-c2ccc(Cl)cc2)no1 [compound 84]
fungizide Wirkung (Pyrenophora teres): 95% | fungizide Wirkung (Septoria nodorum): 95%

Structure (SMILES): CO/C=C(/C(=O)OC)c1ccccc1/C=C/c1cnn(-c2ccc(F)cc2)c1 [compound 98]
fungizide Wirkung (Pyrenophora teres): 95% | fungizide Wirkung (Plasmopara viticola): 95% | fungizide Wirkung (Septoria nodorum): 95%

Structure (SMILES): CO/C=C(/C(=O)OC)c1ccccc1/C=C/c1cnn(-c2ccc(Br)cc2)c1 [compound 99]
fungizide Wirkung (Pyrenophora teres): 95% | fungizide Wirkung (Plasmopara viticola): 95% | fungizide Wirkung (Septoria nodorum): 95%

Structure (SMILES): CO/C=C(/C(=O)OC)c1ccccc1/C=C/c1cc(C)no1 [compound 100]
fungizide Wirkung (Pyrenophora teres): 95% | fungizide Wirkung (Plasmopara viticola): 95%

% Mort. (Ornithodorus moubata; 1000 ppm): 60%
Structure (SMILES): CO/C=C(/C(=O)OC)c1ccccc1/C=C/c1cc(-c2ccccc2)no1 [compound 101]
fungizide Wirkung (Plasmopara viticola): 95% | mortality at 100 ppm (Tetranychus telarius): 100%

Structure (SMILES): CO/C=C(/C(=O)OC)c1ccccc1/C=C/c1cc(-c2c(F)cccc2Cl)no1 [compound 102]
fungizide Wirkung (Pyrenophora teres): 95% | fungizide Wirkung (Plasmopara viticola): 95% | fungizide Wirkung (Septoria nodorum): 95%

From EP0378755B1, “Heterocyclically substituted alpha-aryl acryl acid methyl esters and their use” (BASF Aktiengesellschaft, priority 1988, dated 1990)
